Test results: patent publication EP0385952A2, “Use of a naphthalenmethanamino derivative as antiinflammatory agent and pharmaceutical compositions containing it” (SANDOZ AG, priority 1989, dated 1990)

Test system: lactate dehydrogenase release
Assay: Cytotoxicity: release of lactate dehydrogenase
Type: cell-based
Conditions: cytotoxicity control of the in vitro assays
Method: Macrophages 10 to 14 days old isolated from the bone marrow of mice are incubated in monolayers with the test compound in the presence of Concanavalin A (Con A) (100 µg/ml) as soluble stimulant. After 24 hours the cell-free medium is collected and macrophage activation is investigated biochemically as the extent of plasminogen activator release, assayed photometrically as the plasminogen-dependent amidolysis of D-Val-Phe-Lys-4-nitroanilide according to the principles described in J.C. Drapier et al., Biochemie 61 (1979) 463-471. Cell viability is assayed by measurement of lactate dehydrogenase release according to the method of H.U. Bergmeyer and E. Bernt, Methoden der Enzymatischen Analyse, 3. Auflage, Verlag Chemie (1974) 612-615, adapted as a kinetic assay using microtiter plates. All cultures are checked microscopically for qualitative morphological modification.
The test compound is added in various concentrations to monolayers of OF₁-mouse resident peritoneal macrophages isolated as described in J. Schnyder and M. Baggiolini, J. Exp. Med. 148 (1978) 435-450. […] The supernatants are then analysed by radioimmunoassay procedures for thromboxane B₂, prostaglandin E₂ and leukotriene C₄. Lactate dehydrogenase activities in the medium and cell lysates are also measured as an indication of cell toxicity.

CN(C/C=C/c1ccc(O)cc1)Cc1cccc2ccccc12 [compound of the invention, (E)-N-methyl-N-[3-(4-hydroxyphenyl)-2-propenyl]-1-naphthalene-methanamine]
release of lactate dehydrogenase: below 10%
